Converted amounts (≈) assume the structure as drawn.

This test has as its system Enterococcus faecalis (opthalmologic clinical isolated strain A-2-7). The experiment in a line: Minimal inhibitory concentration used as indicator for T>MIC. The test is classed as cell-based.

Consider `COc1c(N2CCNC(C)C2)c(F)cc2c(=O)c(C(=O)O)cn(C3CC3)c12` (racemic) [Gatifloxacin, (±)-1-cyclopropyl-6-fluoro-1,4-dihydro-8-methoxy-7-(3-methyl-1-piperazinyl)-4-oxo-3-quinolinecarboxylic acid], for which 0.39 µg/mL (≈ 1.04 µM) was the least that counted as inhibitory (MIC).

For the origin of these results see patent publication US20090247543A1, “GATIFLOXACIN-CONTAINING AQUEOUS LIQUID PREPARATION” (Kyorin Pharmaceutical Co., Ltd., priority 2008, published 2009).
